Source: patent US20230416227A1, “PLASMA KALLIKREIN INHIBITORS” (Merck Sharp & Dohme LLC, priority 2020, published 2023)

molecular target: T1, Human plasma kallikrein (Homo sapiens, UniProt P03952); experiment: Plasma Kallikrein Assay; format: biochemical; conditions: purified Human plasma kallikrein 0.5 nM, substrate Acetyl-K-P-R-AFC, pH 7.4
T1 construct: yields a heavy chain (371 amino acids) and a light chain (248 amino acids); purchased Enzyme Research Laboratories
Experimental: The effectiveness of a compound of the present invention as an inhibitor of plasma kallikrein can be determined using a relevant purified serine protease, and an appropriate synthetic substrate. The rate of hydrolysis of the chromogenic or fluorogenic substrate by the relevant serine protease was measured both in the absence and presence of compounds of the present invention. Assays were conducted at rt or at 37° C. […] A decrease in the rate of fluorescence change in the presence of inhibitor is indicative of enzyme inhibition. Such methods are known to one skilled in the art. The results of this assay are expressed as the half-maximal inhibitory concentrations (IC50), or the inhibitory constant, Ki.
Plasma kallikrein determinations were made in 50 mM HEPES buffer at pH 7.4 containing 150 mM NaCl, 5 mM CaCl2), and 0.1% PEG 8000 (polyethylene glycol; Fisher Scientific). […]
Times required to achieve equilibration between enzyme and inhibitor were determined in control experiments. The reactions were performed under linear progress curve conditions and fluorescence increase measured at 405 Ex/510 Em nm. […] IC50 was determined by inflection point from a four parameter logistic curve fit. Ki was calculated using the Cheng Prusoff equation, Ki=IC50/(1+([S]/Km)).

T1 sequence (P03952 391-638 limits assumed): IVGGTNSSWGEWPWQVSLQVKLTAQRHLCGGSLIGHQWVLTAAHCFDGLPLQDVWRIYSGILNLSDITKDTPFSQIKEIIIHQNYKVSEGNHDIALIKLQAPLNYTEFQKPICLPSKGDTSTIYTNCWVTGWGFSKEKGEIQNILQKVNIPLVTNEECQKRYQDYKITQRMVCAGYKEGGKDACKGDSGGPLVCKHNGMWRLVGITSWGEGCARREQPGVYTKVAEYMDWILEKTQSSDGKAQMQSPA
T1 sequence (P03952 20-390 partner limits assumed): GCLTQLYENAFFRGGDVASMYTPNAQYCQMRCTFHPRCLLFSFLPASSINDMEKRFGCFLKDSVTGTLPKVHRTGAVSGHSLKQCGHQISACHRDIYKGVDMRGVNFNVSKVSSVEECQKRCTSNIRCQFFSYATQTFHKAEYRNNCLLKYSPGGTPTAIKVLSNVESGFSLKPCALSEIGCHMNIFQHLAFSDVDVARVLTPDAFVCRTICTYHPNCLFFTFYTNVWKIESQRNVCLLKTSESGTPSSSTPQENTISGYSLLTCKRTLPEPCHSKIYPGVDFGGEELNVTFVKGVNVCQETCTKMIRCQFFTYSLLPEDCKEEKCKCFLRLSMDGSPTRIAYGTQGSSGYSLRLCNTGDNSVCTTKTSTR

Compound | IC50
Cn1cnc(C2CCCN2c2ccc(Cn3cc(NC(=O)c4cncc(-c5c(C(F)F)ccc(Cl)c5F)n4)cn3)cn2)n1 (centres unmarked) [Example 130, 6-(3-Chloro-6-(difluoromethyl)-2-fluorophenyl)-N-(1-((6-(2-(1-methyl-1H-1,2,4-triazol-3-yl)pyrrolidin-1-yl)pyridin-3-yl)methyl)-1H-pyrazol-4-yl)pyrazine-2-carboxamide] | 35 nM
O=C(Nc1cnn(C2CCc3nc(N4CCC4)ccc32)c1)c1cncc(-c2c(C(F)F)ccc(Cl)c2F)n1 (single isomer, unassigned) [Example 35, (S or R)-N-(1-(2-(azetidin-1-yl)-6,7-dihydro-5H-cyclopenta[b]pyridin-5-yl)-1H-pyrazol-4-yl)-6-(3-chloro-6-(difluoromethyl)-2-fluorophenyl)pyrazine-2-carboxamide] | 33.2 nM
CC(c1cnc(N(C)CC(=O)N(C)C)nc1)n1cc(NC(=O)c2cncc(-c3c(C(F)F)ccc(Cl)c3F)n2)cn1 (centres unmarked) [Example 72, 6-(3-Chloro-6-(difluoromethyl)-2-fluorophenyl)-N-(1-(1-(2-((2-(dimethylamino)-2-oxoethyl)(methyl)amino)pyrimidin-5-yl)ethyl)-1H-pyrazol-4-yl)pyrazine-2-carboxamide] | 2.5 nM
O=C(Nc1cnn(Cc2ccc(N3CC[C@H]3CO)nc2)c1)c1cncc(-c2c(C(F)F)ccc(Cl)c2F)n1 [Example 126, (S)-6-(3-Chloro-6-(difluoromethyl)-2-fluorophenyl)-N-(1-((6-(2-(hydroxymethyl)azetidin-1-yl)pyridin-3-yl)methyl)-1H-pyrazol-4-yl)pyrazine-2-carboxamide] | 30.5 nM
Cc1nc(N2CCC2)cnc1Cn1cc(NC(=O)c2cncc(-c3c(C(F)F)ccc(Cl)c3F)n2)cn1 [Example 24, N-(1-((5-(Azetidin-1-yl)-3-methylpyrazin-2-yl)methyl)-1H-pyrazol-4-yl)-6-(3-chloro-6-(difluoromethyl)-2-fluorophenyl)pyrazine-2-carboxamide] | 26.8 nM
CC(c1cnc(N2CC[C@H]2CN[C@@H]2CCC[C@H]2O)nc1)n1cc(NC(=O)c2cncc(-c3c(C(F)F)ccc(Cl)c3F)n2)cn1 (stereo partly drawn) [Example 181, 6-(3-Chloro-6-(difluoromethyl)-2-fluorophenyl)-N-(1-(1-(2-((S)-2-((((1R,2R)-2-hydroxycyclopentyl)amino)methyl)azetidin-1-yl)pyrimidin-5-yl)ethyl)-1H-pyrazol-4-yl)pyrazine-2-carboxamide] | 4.2 nM
O=C(Nc1cnn(Cc2ccc(N3CCC(CO)C3)nc2)c1)c1cncc(-c2c(C(F)F)ccc(Cl)c2F)n1 (centres unmarked) [Example 132, 6-(3-Chloro-6-(difluoromethyl)-2-fluorophenyl)-N-(1-((6-(3-(hydroxymethyl)pyrrolidin-1-yl)pyridin-3-yl)methyl)-1H-pyrazol-4-yl)pyrazine-2-carboxamide] | 49 nM
N#Cc1ccc(Cl)c(F)c1-c1cncc(C(=O)Nc2cnn(Cc3ccc(N4CCC4)nc3)c2)n1 [Example 52, N-(1-((6-(Azetidin-1-yl)pyridin-3-yl)methyl)-1H-pyrazol-4-yl)-6-(3-chloro-6-cyano-2-fluorophenvl)pyrazine-2-carboxamide] | 17.1 nM
CC(c1cnc(N2CCC[C@@H]2C(N)=O)nc1)n1cc(NC(=O)c2cncc(-c3c(C(F)F)ccc(Cl)c3F)n2)cn1 (mixture of isomers) [Example 104, N-(1-((R and S)-1-(2-((R)-2-Carbamoylpyrrolidin-1-yl)pyrimidin-5-yl)ethyl)-1H-pyrazol-4-yl)-6-(3-chloro-6-(difluoromethyl)-2-fluorophenyl)pyrazine-2-carboxamide] | 32.9 nM
CC(c1cnc(N2CC[C@H]2CN2CC(O)C2)nc1)n1cc(NC(=O)c2cncc(-c3c(C(F)F)ccc(Cl)c3F)n2)cn1 (stereo partly drawn) [Example 170, 6-(3-Chloro-6-(difluoromethyl)-2-fluorophenyl)-N-(1-(1-(2-((S)-2-((3-hydroxyazetidin-1-yl)methyl)azetidin-1-yl)pyrimidin-5-yl)ethyl)-1H-pyrazol-4-yl)pyrazine-2-carboxamide] | 1.6 nM
CN(CCO)c1ccc(Cn2cc(NC(=O)c3cncc(-c4c(C(F)F)ccc(Cl)c4F)n3)cn2)cn1 [Example 121, 6-(3-Chloro-6-(difluoromethyl)-2-fluorophenyl)-N-(1-((6-((2-hydroxyethyl)(methyl)amino)pyridin-3-yl)methyl)-1H-pyrazol-4-yl)pyrazine-2-carboxamide] | 18.4 nM
CC(c1cnc(N2Cc3cncnc3C2)nc1)n1cc(NC(=O)c2cncc(-c3c(C(F)F)ccc(Cl)c3F)n2)cn1 (centres unmarked) [Example 78, 6-(3-Chloro-6-(difluoromethyl)-2-fluorophenyl)-N-(1-(1-(2-(5,7-dihydro-6H-pyrrolo[3,4-d]pyrimidin-6-yl)pyrimidin-5-yl)ethyl)-1H-pyrazol-4-yl)pyrazine-2-carboxamide] | 5.6 nM
CC(c1cnc(N2CC[C@H]2CN(C)[C@H]2CCC[C@@H]2O)nc1)n1cc(NC(=O)c2cncc(-c3c(C(F)F)ccc(Cl)c3F)n2)cn1 (stereo partly drawn) [Example 183, 6-(3-Chloro-6-(difluoromethyl)-2-fluorophenyl)-N-(1-(1-(2-((S)-2-((((1S,2S)-2-hydroxycyclopentyl)(methyl)amino)methyl)azetidin-1-yl)pyrimidin-5-yl)ethyl)-1H-pyrazol-4-yl)pyrazine-2-carboxamide] | 4.2 nM
CC(c1cnc(N2CC[C@H]2CN2CC(C)(O)C2)nc1)n1cc(NC(=O)c2cncc(-c3c(C(F)F)ccc(Cl)c3F)n2)cn1 (stereo partly drawn) [Example 174, 6-(3-Chloro-6-(difluoromethyl)-2-fluorophenyl)-N-(1-(1-(2-((S)-2-((3-hydroxy-3-methylazetidin-1-yl)methyl)azetidin-1-yl)pyrimidin-5-yl)ethyl)-1H-pyrazol-4-yl)pyrazine-2-carboxamide] | 2.3 nM
CC(c1cnc(N2CC[C@H]2[C@@H](C)N2C[C@@H](O)[C@H](F)C2)nc1)n1cc(NC(=O)c2cncc(-c3c(C(F)F)ccc(Cl)c3F)n2)cn1 (stereo partly drawn) [Example 189, 6-(3-Chloro-6-(difluoromethyl)-2-fluorophenyl)-N-(1-(1-(2-((S)-2-((R)-1-((3R,4R)-3-fluoro-4-hydroxypyrrolidin-1-yl)ethyl)azetidin-1-yl)pyrimidin-5-yl)ethyl)-1H-pyrazol-4-yl)pyrazine-2-carboxamide] | 1.2 nM

Second part, the compound after the results:

IC50 | Compound
65.1 nM | O=C(Nc1cnn(Cc2cnc(N3CCCC3CO)nc2)c1)c1cncc(-c2c(C(F)F)ccc(Cl)c2F)n1 (centres unmarked) [Example 113, 6-(3-Chloro-6-(difluoromethyl)-2-fluorophenyl)-N-(1-((2-(2-(hydroxymethyl)pyrrolidin-1-yl)pyrimidin-5-yl)methyl)-1H-pyrazol-4-yl)pyrazine-2-carboxamide]
5.4 nM | O=C(Nc1cnn(Cc2ccc(N3CCC4OCCC43)nc2)c1)c1cncc(-c2c(C(F)F)ccc(Cl)c2F)n1 (centres unmarked) [Example 117, 6-(3-Chloro-6-(difluoromethyl)-2-fluorophenyl)-N-(1-((6-(hexahydro-4H-furo[3,2-b]pyrrol-4-yl)pyridin-3-yl)methyl)-1H-pyrazol-4-yl)pyrazine-2-carboxamide]
5 nM | O=C(Nc1cnn(Cc2cnc(N3CCC4OCCC43)nc2)c1)c1cncc(-c2c(C(F)F)ccc(Cl)c2F)n1 (centres unmarked) [Example 75, 6-(3-Chloro-6-(difluoromethyl)-2-fluorophenyl)-N-(1-((2-(hexahydro-4H-furo[3,2-b]pyrrol-4-yl)pyrimidin-5-yl)methyl)-1H-pyrazol-4-yl)pyrazine-2-carboxamide]
7.3 nM | CC(N)C1CCCN1c1ncc(Cn2cc(NC(=O)c3cncc(-c4c(C(F)F)ccc(Cl)c4F)n3)cn2)cn1 (single isomer, unassigned) [Example 156, N-(1-((2-(2-(1-Aminoethyl)pyrrolidin-1-yl)pyrimidin-5-yl)methyl)-1H-pyrazol-4-yl)-6-(3-chloro-6-(difluoromethyl)-2-fluorophenyl)pyrazine-2-carboxamide]
9.5 nM | O=C(Nc1cnn(Cc2cnc(N3CCCC3CN3C[C@H](F)[C@@H](F)C3)nc2)c1)c1cncc(-c2c(C(F)F)ccc(Cl)c2F)n1 (stereo partly drawn) [Example 158, 6-(3-Chloro-6-(difluoromethyl)-2-fluorophenyl)-N-(1-((2-(2-(((35,4S)-3,4-difluoropyrrolidin-1-yl)methyl)pyrrolidin-1-yl)pyrimidin-5-yl)methyl)-1H-pyrazol-4-yl)pyrazine-2-carboxamide]
17.9 nM | CCC(=O)C1C2CC2CN1c1ncc(Cn2cc(NC(=O)c3cncc(-c4c(C(F)F)ccc(Cl)c4F)n3)cn2)cn1 (centres unmarked) [Example 91, 6-(3-Chloro-6-(difluoromethyl)-2-fluorophenyl)-N-(1-((2-(2-propionyl-3-azabicyclo[3.1.0]hexan-3-yl)pyrimidin-5-yl)methyl)-1H-pyrazol-4-yl)pyrazine-2-carboxamide]
43.5 nM | O=C(Nc1cnn(Cc2cnc(N3CCCC3C3(O)CC3)nc2)c1)c1cncc(-c2c(C(F)F)ccc(Cl)c2F)n1 (centres unmarked) [Example 107, 6-(3-Chloro-6-(difluoromethyl)-2-fluorophenyl)-N-(1-((2-(2-(1-hydroxycyclopropyl)pyrrolidin-1-yl)pyrimidin-5-yl)methyl)-1H-pyrazol-4-yl)pyrazine-2-carboxamide]
17.8 nM | O=C(Nc1cnn(Cc2cnc(N3CC4C(C3)C4(F)F)nc2)c1)c1cncc(-c2c(C(F)F)ccc(Cl)c2F)n1 (centres unmarked) [Example 90, 6-(3-Chloro-6-(difluoromethyl)-2-fluorophenyl)-N-(1-((2-(6,6-difluoro-3-azabicyclo[3.1.0]hexan-3-yl)pyrimidin-5-yl)methyl)-1H-pyrazol-4-yl)pyrazine-2-carboxamide]
